Laboratory results as given in article PMC13334477 (RSC Medicinal Chemistry, 2026).

Each molecule was assayed on rLTR4-5′Cy5 (parallel RNA G4) (assay: Ligand-induced fluorescence quenching assay (FQA), rLTR4-5′Cy5). Conditions: +10µM ds26.
Type: binding, HIV-1
Description: Cy5 labelled oligonucleotides were purchased lyophilized and RP-cartridge purified from Eurogentec (Kanaka Eurogentec, Seraing, Belgium). The ligand-induced fluorescence quenching assay was conducted as previously described.[47] A Stratagene Mx3005P instrument was used to carry out the assay in 96-well plates. The filters for excitation and emission were set at 635 nm and 665 nm, respectively. The gain was used at 8×. The labeled oligonucleotide was used at 10 nM, and the buffer was 10 mM lithium cacodylate (pH 7.2), 10 mM KCl, and 90 mM LiCl in a final volume of 50 μL. The oligonucleotide was heated at 90 °C for 5 min and put in ice to anneal. The ligand was added over a range of concentrations between 0 and 80 μM. A competitor, ds26, was also added at 3 or 10 μM. Each experimental condition was tested in triplicate except for the ligand alone with the buffer, which was tested in duplicate. The instrument was programmed to heat the plate for 10 min at 25 °C and measure the fluorescence after 1 min for 5 cycles. The fluorescence of each sample was normalized, and the fluorescence of the ligand alone was subtracted.
We then addressed the binding of the DBA series to the rLTR4 RNA G4. The FRET melting assay was not appropriate for investigating ligand binding to this RNAs due to its high thermal stability (Tm > 72 °C).[26] We have therefore used a ligand-induced fluorescence quenching assay (FQA) to analyse the interaction of the DBAs with either 5′ or 3′ fluorescently labelled RNAs (Fig. S8). Since planar G4-ligands generally stack on an accessible G-quartet,[94–96] we expect the DBAs to also recognize G4s by stacking interactions. To conduct a fluorescence quenching experiment, a CY5 fluorophore is attached on the 3′ or 5′ end of the RNA. […] Thus, upon interaction of the ligand with the G-quartet, the ligand induces the quenching of the fluorescence emission. This test enables determination of the apparent association constants (Ka) of each DBA with the 5′ or 3′ quartet of the G4 structure (Fig. 4, Table S3). […] A similar difference in G-tetrad binding affinities has previously been observed for TMPyP4 and PhenDC3.[47]
The fluorescently labeled oligonucleotides were dissolved at a concentration of 10 nM in 10 mM lithium cacodylate buffer (pH 7.2) with 10 mM KCl and 90 mM LiCl. […] Data are the results of at least three independent experiments in which each data point was performed in duplicate.
COc1ccc2c(ccc3c2cc2c4ccc(OC)cc4ccc2[n+]3-c2ccccc2)c1 [DBA1] was tested, and the “Ka rLTR4-5′Cy5 FQA” value was 1.1±0.06 10^5 M and the Kd was 8.9 ± 1.8 µM. For COC(=O)c1ccc(-[n+]2c3ccc4cc(OC)ccc4c3cc3c4ccc(OC)cc4ccc32)cc1 [DBA2], the “Ka rLTR4-5′Cy5 FQA” value was 0.9±0.03 10^5 M and the Kd was 11.6 ± 3.8 µM. COc1ccc(-[n+]2c3ccc4cc(OC)ccc4c3cc3c4ccc(OC)cc4ccc32)cc1 [DBA3] was tested, and the “Ka rLTR4-5′Cy5 FQA” value was 0.9±0.07 10^5 M and the Kd was 11.1 ± 1.4 µM. COc1ccc2c(ccc3c2cc2c4ccc(OC)cc4ccc2[n+]3-c2ccc([N+](=O)[O-])cc2)c1 [DBA4] was tested, and the “Ka rLTR4-5′Cy5 FQA” value was 1.2±0.05 10^5 M and the Kd was 8.4 ± 2.1 µM. c1ccc(-[n+]2c3ccc4ccccc4c3cc3c4ccccc4ccc32)cc1 [DBA5] was tested, and the “Ka rLTR4-5′Cy5 FQA” value was 1.1±0.04 10^5 M and the Kd was 9.5 ± 2.6 µM.

Same assay, conditions: No ds26
COc1ccc2c(ccc3c2cc2c4ccc(OC)cc4ccc2[n+]3-c2ccccc2)c1 [DBA1] was tested, and the “Ka rLTR4-5′Cy5 FQA” value was 1.8±0.07 10^5 M and the Kd was 5.5 ± 1.5 µM. COC(=O)c1ccc(-[n+]2c3ccc4cc(OC)ccc4c3cc3c4ccc(OC)cc4ccc32)cc1 [DBA2] was tested, and the “Ka rLTR4-5′Cy5 FQA” value was 1.1±0.03 10^5 M and the Kd was 9.3 ± 2.9 µM. COc1ccc(-[n+]2c3ccc4cc(OC)ccc4c3cc3c4ccc(OC)cc4ccc32)cc1 [DBA3] was tested, and the “Ka rLTR4-5′Cy5 FQA” value was 1.2±0.06 10^5 M and the Kd was 8.7 ± 1.6 µM. In the case of COc1ccc2c(ccc3c2cc2c4ccc(OC)cc4ccc2[n+]3-c2ccc([N+](=O)[O-])cc2)c1 [DBA4], the “Ka rLTR4-5′Cy5 FQA” value is reported as 2.3±0.1 10^5 M and the Kd is reported as 4.4 ± 1 µM. With c1ccc(-[n+]2c3ccc4ccccc4c3cc3c4ccccc4ccc32)cc1 [DBA5] the “Ka rLTR4-5′Cy5 FQA” value was 1.6±0.07 10^5 M and the Kd was 6.2 ± 1.4 µM.

Each molecule was assayed on TG4T (DNA, G4) TGGGGT (assay: native ESI-MS). Conditions: 100 mM ammonium acetate (NH4+), no K+; apparent, site 1 of 2; 10 μM DNA, 20 μM ligand, 4 °C incubation.
For COc1ccc2c(ccc3c2cc2c4ccc(OC)cc4ccc2[n+]3-c2ccccc2)c1 [DBA1], the Kd1 was 14.69 µM. Work on COC(=O)c1ccc(-[n+]2c3ccc4cc(OC)ccc4c3cc3c4ccc(OC)cc4ccc32)cc1 [DBA2] yielded a Kd1 of 6.09 µM. COc1ccc(-[n+]2c3ccc4cc(OC)ccc4c3cc3c4ccc(OC)cc4ccc32)cc1 [DBA3] showed a Kd1 of 13.62 µM. COc1ccc2c(ccc3c2cc2c4ccc(OC)cc4ccc2[n+]3-c2ccc([N+](=O)[O-])cc2)c1 [DBA4] gave a Kd1 of 5.42 µM. In the case of c1ccc(-[n+]2c3ccc4ccccc4c3cc3c4ccccc4ccc32)cc1 [DBA5], the Kd1 is reported as 21.57 µM.

The molecules below were run on DK100 (DNA, duplex) CGCGGGCCCGCG (assay: native ESI-MS). Conditions: 100 mM ammonium acetate (NH4+), no K+; apparent, site 1 of 2; 10 μM DNA, 20 μM ligand, 4 °C incubation.
Molecule COc1ccc2c(ccc3c2cc2c4ccc(OC)cc4ccc2[n+]3-c2ccc([N+](=O)[O-])cc2)c1 [DBA4] has a Kd1 of 38.42 µM. With c1ccc(-[n+]2c3ccc4ccccc4c3cc3c4ccccc4ccc32)cc1 [DBA5] the Kd1 was 40.04 µM.

Same assay, conditions: 100 mM ammonium acetate (NH4+), no K+; apparent, site 1 of 2; 10 μM DNA, 20 μM ligand, 4 °C incubation; almost no complex
Work on COc1ccc(-[n+]2c3ccc4cc(OC)ccc4c3cc3c4ccc(OC)cc4ccc32)cc1 [DBA3] yielded a Kd1 of 155.63 µM.

Same assay, conditions: 100 mM ammonium acetate (NH4+), no K+; apparent; 10 μM DNA, 20 μM ligand, 4 °C incubation; almost no complex detected
COc1ccc2c(ccc3c2cc2c4ccc(OC)cc4ccc2[n+]3-c2ccccc2)c1 [DBA1] showed a Kd1 of 1027.52 µM. COC(=O)c1ccc(-[n+]2c3ccc4cc(OC)ccc4c3cc3c4ccc(OC)cc4ccc32)cc1 [DBA2] was tested, and the Kd1 was 833.14 µM.

These molecules were tested against Htel DNA G4 (human telomeric) (assay: Native ESI-MS, Htel). Conditions: 10 μM DNA, 20 μM ligand, 100 mM ammonium acetate; read-out: Kd1 Htel.
Type: binding
Description: Oligonucleotides were purchased lyophilized and RP-cartridge purified from Eurogentec (Kanaka Eurogentec, Seraing, Belgium), then buffer exchanged with ammonium acetate (5 M; Sigma-Aldrich, Saint-Quentin-Fallavier, France) using Amicon Ultra (3 K cut-off; Merck Millipore, Cork, Ireland). The concentrations of the initial stock solutions of DNA/RNA (∼1 mM) were measured by UV absorbance at 260 nm. Sample solutions were prepared by diluting the appropriate volume of oligonucleotide stock solutions to reach 10 μM of DNA/RNA and 20 μM of ligand, in 100 mM ammonium acetate. The solutions were incubated for 16 h at 4 °C before analysis by mass spectrometry. […] These parameters ensured a good signal intensity without disrupting noncovalent complexes, which was verified using d[G4T4G4]2 as a control. The presented spectra of all DNA/RNA used in this work (Fig. 5, S9 and S10) result from 8 min accumulations. The abundance of each species, M, M + 1L, M + 2L and M + 3L complexes, where M is a monomer oligonucleotide and L is a ligand, was determined from their peak area signals (A), from the sum of the −4, −5 and −6 charge states for DNA and from the sum of the −5, −6 and −7 charge states for RNA, assuming that their response factors are equal. The molar concentrations were then calculated knowing the total amount of oligonucleotide [M]tot: [drawing 1] [drawing 2] [drawing 3] [drawing 4] The concentration of the free ligand, [L]free, was determined from its total concentration [L]tot:[L]free = [L]tot − [M + 1L] − 2[M + 2L] − 3[M + 3L]Apparent consecutive dissociation constants (Kd1, Kd2 and Kd3) were calculated by using the following equations: [drawing 5] [drawing 6] [drawing 7]
We further analysed the formation of the DBA/G4 complexes by native electrospray ionization mass spectrometry (ESI-MS). We initially attempted to analyze DBA binding to the primary G4 targets from HIV-1 (HIVpro1, HIVpro2, LTR4 and rLTR4 RNA). […] These sequences span the major G4 topological classes and provide a representative assessment of DBA binding across diverse G4 architectures. We also included two DNA duplex controls (DK100 and DK66) to evaluate binding selectivity. This ESI-MS approach enables direct determination of binding stoichiometry, quantification of each species in solution, and calculation of dissociation constants (Kd) from the relative abundances of free and bound forms.[88,97]
In the ESI-MS conditions, the rLTR4 G4 (10 μM) forms a dimeric structure. […] Among the six DNA and RNA tested here (Fig. 5B, S9 and S10) only rLTR4 presented 1 : 3 G4/DBA complexes. In all cases but one, the 1 : 1 stoichiometry represents the major species in solution while for rLTR4 it is the 1 : 2 (green). […] For TG4T tetramolecular G4 or G4T4G4 bimolecular G4 only 1 : 1 and 1 : 2 complexes were detected (Fig. S9A and S10A). […] The weakest binding was obtained for the G4T4G4 antiparallel G4 and Htel sequence with Kd1s ranging from 11 μM for to 500 μM (Table 2).
COc1ccc2c(ccc3c2cc2c4ccc(OC)cc4ccc2[n+]3-c2ccccc2)c1 [DBA1] showed a Kd of 497 µM. In the case of COC(=O)c1ccc(-[n+]2c3ccc4cc(OC)ccc4c3cc3c4ccc(OC)cc4ccc32)cc1 [DBA2], the Kd is reported as 41.1 µM. With COc1ccc(-[n+]2c3ccc4cc(OC)ccc4c3cc3c4ccc(OC)cc4ccc32)cc1 [DBA3] the Kd was 52.4 µM. COc1ccc2c(ccc3c2cc2c4ccc(OC)cc4ccc2[n+]3-c2ccc([N+](=O)[O-])cc2)c1 [DBA4] showed a Kd of 11.2 µM. Work on c1ccc(-[n+]2c3ccc4ccccc4c3cc3c4ccccc4ccc32)cc1 [DBA5] yielded a Kd of 14.5 µM.

Same assay, conditions: 10 μM DNA, 20 μM ligand, 100 mM ammonium acetate; read-out: Kd2 Htel
COc1ccc2c(ccc3c2cc2c4ccc(OC)cc4ccc2[n+]3-c2ccccc2)c1 [DBA1] gave a Kd of 103 µM. Work on COC(=O)c1ccc(-[n+]2c3ccc4cc(OC)ccc4c3cc3c4ccc(OC)cc4ccc32)cc1 [DBA2] yielded a Kd of 35.3 µM. Work on COc1ccc(-[n+]2c3ccc4cc(OC)ccc4c3cc3c4ccc(OC)cc4ccc32)cc1 [DBA3] yielded a Kd of 27.2 µM. COc1ccc2c(ccc3c2cc2c4ccc(OC)cc4ccc2[n+]3-c2ccc([N+](=O)[O-])cc2)c1 [DBA4] was tested, and the Kd was 55.6 µM. c1ccc(-[n+]2c3ccc4ccccc4c3cc3c4ccccc4ccc32)cc1 [DBA5] gave a Kd of 24.7 µM.
